Literature values as cited in patent US20240238228A1, “COMPOSITIONS AND METHODS FOR TREATING ALLERGIES AND INFLAMMATORY CONDITIONS” (UNIVERSITY OF PITTSBURGH-OF THE COMMONWEALTH SYSTEM OF …, priority 2021, published 2024).
Read-outs that look alike come from different tables or passages of the source.

System: allergic contact hypersensitivity (CHS)
Conditions: NKA administration, cited from earlier work

## Neurokinin A [NKA]
  allergic contact hypersensitivity (CHS) in the skin: blocks
Listed as Neurokinin A
  allergic contact hypersensitivity (CHS) in the skin: inhibits inflammation
